For 1 molecule, inhibition results are on record in publication PMC6934184, “Selective DNA-PKcs inhibition extends the therapeutic index of localized radiotherapy and chemotherapy” (The Journal of Clinical Investigation, 2019).

Each structure is given as a SMILES string.

This assay concerns the target T1, MAP4K2 (GCK) (Homo sapiens, UniProt Q12851).
T1 construct: purchased Thermo Fisher Scientific (Life Technologies) SelectScreen
Put plainly: SelectScreen Z'LYTE. The assay is classed as biochemical. In a few lines: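 NU5455 was profiled across the SelectScreen Broad panel of kinase activity and binding assays. Z'LYTE reactions such as CSF1R ran at apparent Km ATP, while the Adapta CAMK1 assay used ATP listed as 10. Values are given as percent.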

T1 sequence (Q12851 whole entry): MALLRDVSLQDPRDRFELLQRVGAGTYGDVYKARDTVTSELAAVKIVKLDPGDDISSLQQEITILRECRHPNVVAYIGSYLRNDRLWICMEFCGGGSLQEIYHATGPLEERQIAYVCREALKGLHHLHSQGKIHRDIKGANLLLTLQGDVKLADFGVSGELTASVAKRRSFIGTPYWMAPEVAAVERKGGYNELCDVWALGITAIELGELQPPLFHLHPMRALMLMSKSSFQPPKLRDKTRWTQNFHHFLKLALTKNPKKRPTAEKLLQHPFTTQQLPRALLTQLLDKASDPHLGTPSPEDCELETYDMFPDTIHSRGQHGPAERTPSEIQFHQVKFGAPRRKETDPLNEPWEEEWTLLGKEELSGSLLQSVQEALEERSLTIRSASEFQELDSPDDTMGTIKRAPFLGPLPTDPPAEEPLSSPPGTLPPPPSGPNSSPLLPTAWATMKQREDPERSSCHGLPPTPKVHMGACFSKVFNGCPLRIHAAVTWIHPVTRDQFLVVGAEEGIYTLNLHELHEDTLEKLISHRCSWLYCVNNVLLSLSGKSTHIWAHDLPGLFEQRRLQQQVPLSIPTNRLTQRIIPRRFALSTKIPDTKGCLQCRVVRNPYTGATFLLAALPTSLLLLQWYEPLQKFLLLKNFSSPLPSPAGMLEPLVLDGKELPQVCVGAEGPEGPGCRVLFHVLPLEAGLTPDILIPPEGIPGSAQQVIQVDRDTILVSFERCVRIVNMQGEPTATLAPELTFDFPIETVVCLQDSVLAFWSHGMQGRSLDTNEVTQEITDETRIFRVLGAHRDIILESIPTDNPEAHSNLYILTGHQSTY

Regarding `CN(C(=O)CN1CCOCC1)c1ccc2sc3c(-c4cccc5c(=O)cc(N6CC7CCC(C6)O7)oc45)cccc3c2c1` [NU5455], the inhibition (in general, the percentage by which the read-out fell short of the control) at 1 µM came out at 2.7%.
